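Exposure lasted 48 hours, with cells grown in 96-well plates and compounds tested at five concentrations. TGI is the concentration that stops growth completely.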 Where a SMILES comes first, the peptide text is derived from it. The star is where a group is joined. Fmoc = O=C(OCC1c2ccccc2-c2ccccc21)*; OtBu = CC(C)(C)O*
Tests used:
Experiment in all cases: NCI tumour cell line growth inhibition, 48 h
UACC-62 melanoma = test system: UACC-62 melanoma
MDA-MB-435 = test system: MDA-MB-435
HCT-15 colon = test system: HCT-15 colon
RPMI-8226 leukemia = test system: RPMI-8226 leukemia
SF-295 CNS = test system: SF-295 CNS
HT29 colon = test system: HT29 colon
RXF 393 renal = test system: RXF 393 renal
HCT-116 colon = test system: HCT-116 colon
SK-MEL-28 melanoma = test system: SK-MEL-28 melanoma
NCI-H226 lung = test system: NCI-H226 lung
SK-OV-3 ovarian = test system: SK-OV-3 ovarian

Structure (SMILES): CCOC(=O)C1(C#N)OC(=O)c2cnccc21 (centres undefined)
- TGI (UACC-62 melanoma): > 100 µM
- TGI (MDA-MB-435): > 100 µM
- TGI (HCT-15 colon): > 100 µM
- TGI (RPMI-8226 leukemia): > 100 µM
- TGI (SF-295 CNS): > 100 µM
- TGI (HT29 colon): > 100 µM
- TGI (RXF 393 renal): > 100 µM
- TGI (HCT-116 colon): > 100 µM
- TGI (SK-MEL-28 melanoma): > 100 µM
- TGI (NCI-H226 lung): > 100 µM
- TGI (SK-OV-3 ovarian): > 100 µM

Structure (SMILES): CC(C)C(NC(=O)OCC1c2ccccc2-c2ccccc21)C(=O)NC(CCC(=O)OC(C)(C)C)C(=O)OC(C)(C)C (centres undefined) (Fmoc-Val-Glu(OtBu)-OtBu; configuration not given here)
- TGI (UACC-62 melanoma): > 100 µM
- TGI (MDA-MB-435): > 100 µM
- TGI (HCT-15 colon): > 100 µM
- TGI (RPMI-8226 leukemia): > 100 µM
- TGI (SF-295 CNS): > 89.1 µM
- TGI (HT29 colon): > 100 µM
- TGI (RXF 393 renal): > 100 µM
- TGI (HCT-116 colon): > 100 µM
- TGI (SK-MEL-28 melanoma): > 100 µM
- TGI (NCI-H226 lung): > 100 µM
- TGI (SK-OV-3 ovarian): > 100 µM

Structure (SMILES): O=c1ccc2ccc(OP(=O)(O)O)cc2o1
- TGI (UACC-62 melanoma): > 100 µM
- TGI (MDA-MB-435): > 100 µM
- TGI (HCT-15 colon): > 100 µM
- TGI (RPMI-8226 leukemia): > 100 µM
- TGI (SF-295 CNS): > 100 µM
- TGI (HT29 colon): > 100 µM
- TGI (RXF 393 renal): > 100 µM
- TGI (HCT-116 colon): > 100 µM
- TGI (SK-MEL-28 melanoma): > 100 µM
- TGI (NCI-H226 lung): > 100 µM
- TGI (SK-OV-3 ovarian): > 100 µM

Structure (SMILES): CCOC(=O)C(C(=O)OCC)=C1SC(=Nc2ccccc2)C(=Nc2ccccc2)N1c1ccccc1
- TGI (UACC-62 melanoma): > 100 µM
- TGI (MDA-MB-435): > 100 µM
- TGI (HCT-15 colon): > 100 µM
- TGI (RPMI-8226 leukemia): > 100 µM
- TGI (SF-295 CNS): > 100 µM
- TGI (HT29 colon): > 100 µM
- TGI (RXF 393 renal): > 100 µM
- TGI (HCT-116 colon): > 100 µM
- TGI (SK-MEL-28 melanoma): > 100 µM
- TGI (NCI-H226 lung): > 100 µM
- TGI (SK-OV-3 ovarian): > 100 µM

Structure (SMILES): COc1cc2c(cc1OC)OC(c1c(OC)ccc(OC)c1O)CC2 (centres undefined)
- TGI (UACC-62 melanoma): > 100 µM
- TGI (MDA-MB-435): > 100 µM
- TGI (HCT-15 colon): > 100 µM
- TGI (RPMI-8226 leukemia): > 100 µM
- TGI (SF-295 CNS): > 100 µM
- TGI (HT29 colon): > 100 µM
- TGI (RXF 393 renal): > 100 µM
- TGI (HCT-116 colon): > 100 µM
- TGI (SK-MEL-28 melanoma): > 100 µM
- TGI (NCI-H226 lung): > 100 µM
- TGI (SK-OV-3 ovarian): > 100 µM

Structure (SMILES): N#Cc1ccc(C(O)C(F)(F)c2nc3ccccc3o2)cc1 (centres undefined)
- TGI (UACC-62 melanoma): > 100 µM
- TGI (MDA-MB-435): > 100 µM
- TGI (HCT-15 colon): > 100 µM
- TGI (RPMI-8226 leukemia): > 100 µM
- TGI (SF-295 CNS): > 100 µM
- TGI (HT29 colon): > 100 µM
- TGI (RXF 393 renal): > 100 µM
- TGI (HCT-116 colon): > 100 µM
- TGI (SK-MEL-28 melanoma): > 100 µM
- TGI (NCI-H226 lung): > 100 µM
- TGI (SK-OV-3 ovarian): > 100 µM

Structure (SMILES): Cc1cc(S(=O)(=O)Nc2n[nH]c(-c3ccc(Cl)cc3)n2)c(SSc2cc(Cl)c(C)cc2S(=O)(=O)Nc2n[nH]c(-c3ccc(Cl)cc3)n2)cc1Cl
- TGI (UACC-62 melanoma): 47 µM
- TGI (MDA-MB-435): > 100 µM
- TGI (HCT-15 colon): 69.1 µM
- TGI (RPMI-8226 leukemia): > 100 µM
- TGI (SF-295 CNS): > 100 µM
- TGI (HT29 colon): 57.2 µM
- TGI (RXF 393 renal): 63.7 µM
- TGI (HCT-116 colon): > 100 µM
- TGI (SK-MEL-28 melanoma): 96.4 µM
- TGI (NCI-H226 lung): 73.3 µM
- TGI (SK-OV-3 ovarian): > 100 µM

Structure (SMILES): O=C1NC2c3c(I)sc(I)c3C(=O)C2O1 (centres undefined)
- TGI (UACC-62 melanoma): 23.3 µM
- TGI (MDA-MB-435): 17.5 µM
- TGI (HCT-15 colon): 3.63 µM
- TGI (RPMI-8226 leukemia): 34.1 µM
- TGI (SF-295 CNS): 30.5 µM
- TGI (HT29 colon): 3.25 µM
- TGI (RXF 393 renal): 12.7 µM
- TGI (HCT-116 colon): 6.87 µM
- TGI (SK-MEL-28 melanoma): 21.5 µM
- TGI (NCI-H226 lung): 20.4 µM
- TGI (SK-OV-3 ovarian): 31.5 µM

Structure (SMILES): N#C/C(=C\c1ccc(F)cc1)c1nc(-c2cc3ccccc3oc2=O)cs1
- TGI (UACC-62 melanoma): 38.7 µM
- TGI (MDA-MB-435): > 100 µM
- TGI (HCT-15 colon): > 100 µM
- TGI (RPMI-8226 leukemia): > 100 µM
- TGI (SF-295 CNS): 30.3 µM
- TGI (HT29 colon): > 100 µM
- TGI (RXF 393 renal): 64.2 µM
- TGI (HCT-116 colon): > 100 µM
- TGI (SK-MEL-28 melanoma): > 100 µM
- TGI (NCI-H226 lung): > 100 µM
- TGI (SK-OV-3 ovarian): 67.5 µM
